In PubChem BioAssay AID240 (DTP/NCI, 2004):
Several values for one entry are separate records, joined by “and”; a condition that tells them apart may be missing. Equal values may be shown once. Inconclusive results and toxic doses are left out.

Tested on: Lymphoma 4 ip in BDF1 mice, median survival
Assay: NCI In Vivo Anticancer Drug Screen. Data for tumor model Lymphoma 4 (intraperitoneal) in B6D2F1 (BDF1) mice
Details: endpoint: median survival time, schedule: Q01DX010 (ip), higher = longer survival
Description: The antitumor activity of compounds was measured in mice bearing transplantable tumors. Survival or tumor size were measured and the results are expressed as the measurement made in the treated group (T) divided by the measurement made in the vehicle treated control group (C). The tumor model used in this assay is Lymphoma 4 (intraperitoneal) in B6D2F1 (BDF1) mice

[1] = dose: 4.0 mg/kg/injection, vehicle: saline
[2] = dose: 8.0 mg/kg/injection, vehicle: saline
[3] = dose: 16.0 mg/kg/injection, vehicle: saline
[4] = dose: 62.5 mg/kg/injection, vehicle: saline
[5] = dose: 125.0 mg/kg/injection, vehicle: saline
[6] = dose: 200.0 mg/kg/injection, vehicle: saline
[7] = dose: 31.3 mg/kg/injection, vehicle: saline
[8] = dose: 1.25 mg/kg/injection, vehicle: saline
[9] = dose: 5.0 mg/kg/injection, vehicle: saline
[10] = dose: 10.0 mg/kg/injection, vehicle: saline
[11] = dose: 7.5 mg/kg/injection, vehicle: saline
[12] = dose: 15.0 mg/kg/injection, vehicle: saline
[13] = dose: 30.0 mg/kg/injection, vehicle: saline
[14] = dose: 20.0 mg/kg/injection, vehicle: saline
[15] = dose: 40.0 mg/kg/injection, vehicle: saline

In the case of `CN(C)c1ccc(/C=C/c2ccnc3ccccc23)cc1`, the T/C [1] is reported as 93 % of control and 103 % of control, the T/C [2] is reported as 96 % of control and 100 % of control and the T/C [3] is reported as 93 % of control and 100 % of control.
For `O=c1cn[nH]c(=O)[nH]1`, the T/C [4] was 93 % of control and 108 % of control, the T/C [5] was 103 % of control and 105 % of control and the T/C (dose: 250.0 mg/kg/injection, vehicle: saline) was 97 % of control and 106 % of control. The T/C (dose: 500.0 mg/kg/injection, vehicle: saline) was 102 % of control and 103 % of control.
In the case of `O=c1cnn(C2OC(CO)C(O)C2O)c(=O)[nH]1` (configuration not stated), the T/C [6] is reported as 106 % of control, the T/C (dose: 400.0 mg/kg/injection, vehicle: saline) is reported as 112 % of control and the T/C (dose: 800.0 mg/kg/injection, vehicle: saline) is reported as 106 % of control.
For `CC(CCC(C)OS(C)(=O)=O)OS(C)(=O)=O` (configuration not stated), the T/C (dose: 2.0 mg/kg/injection, vehicle: saline) was 103 % of control, the T/C [1] was 103 % of control and 107 % of control and the T/C [2] was 96 % of control and 100 % of control. The T/C [3] was 107 % of control and 113 % of control.
`CCCSc1ncnc2nc[nH]c12` was tested, and the T/C [7] was 93 % of control and 96 % of control and the T/C [5] was 93 % of control and 96 % of control.
`N#[N+]c1cnc([O-])[nH]c1=O` was tested, and the T/C [8] was 113 % of control, the T/C [9] was 150 % of control and the T/C [10] was 176 % of control.
For `CN(C)[C@@H]1C(=O)C(C(N)=O)=C(O)[C@@]2(O)C(=O)C3=C(O)c4c(O)cccc4C[C@H]3C[C@@H]12`, the T/C (dose: 3.75 mg/kg/injection, vehicle: saline) was 114 % of control, the T/C [11] was 107 % of control and 111 % of control and the T/C [12] was 107 % of control. For the same compound, the T/C [13] was 100 % of control and 107 % of control.
`Oc1cc(CN(CCCl)CCCl)c(O)cc1CN(CCCl)CCCl` was tested, and the T/C (dose: 0.63 mg/kg/injection, vehicle: saline) was 113 % of control and 120 % of control and the T/C [8] was 106 % of control and 116 % of control.
In the case of `N=C(N)SCc1c2ccccc2c(CSC(=N)N)c2ccccc12`, the T/C [9] is reported as 170 % of control, the T/C [10] is reported as 211 % of control and the T/C [14] is reported as 303 % of control. For the same compound, the T/C [15] was 96 % of control.
`Nc1nc2n[nH]nc2c(=O)[nH]1` was tested, and the T/C (dose: 25.0 mg/kg/injection, vehicle: alkali diluted with saline) was 106 % of control, the T/C (dose: 50.0 mg/kg/injection, vehicle: alkali diluted with saline) was 120 % of control and the T/C (dose: 200.0 mg/kg/injection, vehicle: alkali diluted with saline) was 90 % of control.
For `CCCCNc1ncnc2c1cnn2C`, the T/C (dose: 15.6 mg/kg/injection, vehicle: saline) was 103 % of control and 108 % of control, the T/C [7] was 102 % of control and 103 % of control and the T/C [4] was 100 % of control and 123 % of control.
In the case of `COc1cc(-c2ccc(Nc3ccccc3C(=O)O)c(OC)c2)ccc1N`, the T/C [10] is reported as 119 % of control.
`CC1CN1P(=S)(N1CC1C)N1CC1C` (configuration not stated) was tested, and the T/C [8] was 103 % of control, the T/C (dose: 2.5 mg/kg/injection, vehicle: saline) was 93 % of control and 115 % of control and the T/C [9] was 100 % of control and 111 % of control. The T/C [10] was 111 % of control and 120 % of control and the T/C [14] was 115 % of control.
`CS(=O)(=O)OCCC(=O)N1CCN(C(=O)CCOS(C)(=O)=O)CC1` was tested, and the T/C (dose: 100.0 mg/kg/injection, vehicle: saline) was 237 % of control and the T/C [6] was 303 % of control.
For `C[C@@H]1C[C@@H]([C@H](O)CC2CC(=O)NC(=O)C2)C(=O)[C@@H](C)C1`, the T/C [9] was 96 % of control and 105 % of control, the T/C [10] was 93 % of control and 117 % of control and the T/C [14] was 117 % of control and 121 % of control. For the same compound, the T/C [15] was 108 % of control.
For `O=[n+]1c2c(n([O-])c3ccccc31)-c1cccc3cccc-2c13`, the T/C (dose: 3.13 mg/kg/injection, vehicle: saline) was 107 % of control, the T/C (dose: 6.25 mg/kg/injection, vehicle: saline) was 107 % of control and the T/C (dose: 12.5 mg/kg/injection, vehicle: saline) was 115 % of control. The T/C (dose: 25.0 mg/kg/injection, vehicle: saline) was 100 % of control.
In the case of `Nc1nc(SCc2ccccc2)c2[nH]cnc2n1`, the T/C [2] is reported as 96 % of control and 100 % of control and the T/C [3] is reported as 96 % of control and 100 % of control.
For `Clc1ncnc2nc[nH]c12`, the T/C [11] was 100 % of control and 102 % of control, the T/C [12] was 90 % of control and 94 % of control and the T/C [13] was 90 % of control and 105 % of control. For the same compound, the T/C (dose: 60.0 mg/kg/injection, vehicle: saline) was 96 % of control and 100 % of control.
